Consider 22 compounds from patent US20060167001A1, “Pyridazinone-derivatives as pde4 inhibitors” (priority 2002, published 2006).

Each structure is given as a SMILES string. Counter-ions that a name gives are not always drawn.

One may read the melting point as the temperature, or range, at which the solid turns liquid.

For one data set, the target named is T1, PDE3 (cGMP-inhibited) (Homo sapiens, UniProt Q14432).
T1 construct: investigated in homogenates of human platelets; from tissue; host or cells: homogenates of human platelets
Nature of the data set: Inhibition of PDE3 activity, Method A (homogenates of human platelets). The class given is biochemical. As to conditions: read-out: PDE3 Inhibition [measured as −logIC50 (mol/l)] (converted). As to the method: The PDE activity was determined according to Thompson et al. (Adv Cycl Nucl Res 10: 69-92, 1979) with some modifications (Bauer and Schwabe, Naunyn-Schmiedeberg's Arch Pharmacol 311: 193-198, 1980). The test samples contained 20 mM Tris (pH 7.4), 5 mM MgCl2, 0.5 μM cAMP or cGMP, [^3H]cAMP or [^3H]cGMP (about 30 000 cpm/sample), the PDE isoenzyme-specific additives described in greater detail below, the indicated concentrations of inhibitor and an aliquot of the enzyme solution in a total sample volume of 200 μl. Dilution series of the compounds according to the invention were prepared in DMSO and further diluted in the samples [1:100 (v/v)], to give the desired end concentration of the inhibitors at a DMSO concentration of 1% (v/v), which for its part has only a minute effect on PDE activity.
After preincubation at 37° C. for 5 minutes, the reaction was started by addition of the substrate (cAMP or cGMP). The samples were incubated at 37° C. for a further 15 min. The reaction was terminated by addition of 50 μl 0.2 N HCl. After cooling on ice for 10 minutes and addition of 25 μg 5′-nucleotidase (snake venom from Crotalus atrox), the mixture was again incubated at 37° C. for 10 mih and the samples were then applied to QAE Sephadex A-25 columns (sample volume 1 ml). The columns were eluted with 2 ml of 30 mM ammonium formate (pH 6.0). The radioactivity of the eluate was measured and corrected by the corresponding blank values (measured in the presence of denatured protein); the blank values were less than 5% of the total radioactivity. In no case did the proportion of hydrolyzed nucleotide exceed 30% of the original substrate concentration.
PDE3 (cGMP-inhibited) was investigated in homogenates of human platelets (see Schudt et al., Biochem Pharmacol 1991: 42, 153-162) using cAMP or cGMP as substrate.
The IC50 values were determined from the concentration-inhibition curves by nonlinear regression.

T1 sequence (Q14432 whole entry): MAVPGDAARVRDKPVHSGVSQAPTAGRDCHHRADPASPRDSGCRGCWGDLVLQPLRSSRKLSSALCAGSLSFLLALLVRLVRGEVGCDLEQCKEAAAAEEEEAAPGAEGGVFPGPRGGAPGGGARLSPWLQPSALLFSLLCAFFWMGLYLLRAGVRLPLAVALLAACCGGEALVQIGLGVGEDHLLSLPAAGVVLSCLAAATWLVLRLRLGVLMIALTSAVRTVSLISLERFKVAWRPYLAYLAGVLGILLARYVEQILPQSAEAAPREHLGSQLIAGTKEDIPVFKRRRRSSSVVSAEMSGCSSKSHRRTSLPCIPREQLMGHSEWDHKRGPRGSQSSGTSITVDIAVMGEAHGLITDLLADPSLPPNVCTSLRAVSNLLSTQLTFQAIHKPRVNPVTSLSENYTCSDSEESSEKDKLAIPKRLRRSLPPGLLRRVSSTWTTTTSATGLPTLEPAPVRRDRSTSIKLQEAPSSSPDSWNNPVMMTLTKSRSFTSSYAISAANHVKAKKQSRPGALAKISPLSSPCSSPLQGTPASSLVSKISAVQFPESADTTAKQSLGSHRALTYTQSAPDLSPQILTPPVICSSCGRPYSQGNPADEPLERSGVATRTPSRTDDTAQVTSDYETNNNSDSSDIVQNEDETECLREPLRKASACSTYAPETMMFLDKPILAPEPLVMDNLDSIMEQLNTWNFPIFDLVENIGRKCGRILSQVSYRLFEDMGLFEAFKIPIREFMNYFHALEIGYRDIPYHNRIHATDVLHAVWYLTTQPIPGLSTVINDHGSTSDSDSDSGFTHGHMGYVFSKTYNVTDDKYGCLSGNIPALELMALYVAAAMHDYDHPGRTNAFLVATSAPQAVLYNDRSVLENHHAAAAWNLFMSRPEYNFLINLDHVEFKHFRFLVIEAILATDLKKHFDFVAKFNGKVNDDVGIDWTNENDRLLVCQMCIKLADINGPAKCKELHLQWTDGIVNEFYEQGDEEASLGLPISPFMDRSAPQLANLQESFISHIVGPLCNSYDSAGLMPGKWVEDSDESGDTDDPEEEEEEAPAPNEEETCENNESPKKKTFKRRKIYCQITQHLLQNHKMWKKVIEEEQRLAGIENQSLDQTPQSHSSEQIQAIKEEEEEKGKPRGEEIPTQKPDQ

Turning to `COc1ccc(C2=NN(C3CCN(CC(=O)N4CCOCC4)CC3)C(=O)CC2)cc1OC` [Compound 10, 6-(3,4-Dimethoxy-phenyl)-2-[1-(2-morpholin4-yl-2-oxo-ethyl)-piperidin-4-yl]-4,5-dihydro-2-pyridazin-3-one hydrochloride], the IC50 at PDE3 (cGMP-inhibited) is 4.47 µM.
As to `COc1ccc(C2=NN(C3CCN(C(C)=O)CC3)C(=O)CC2C)cc1OC` (stereo not drawn) [Compound 4, 2-(1-Acetyl-piperidin-4-yl)-6-(3,4-dimethoxy-phenyl)-5-methyl-4,5-dihydro-2H-pyridazin-3-one], the melting point was in the range of 149 to 152 °C. For the same compound, on PDE3 (cGMP-inhibited), the IC50 is 1.74 µM.
In the same order, the values of `COc1ccc(C2=NN(C3CCN(S(=O)(=O)c4ccccc4C#N)CC3)C(=O)CC2)cc1OC` [Compound 18, 2-{4-[3-(3,4-Dimethoxy-phenyl)-6-oxo-5,6-dihydro-4H-pyridazin-1-yl]-piperidine-1-sulfonyl}-benzonitrile] are 158 to 160 °C and 0.0794 µM.
In the same order, the values of `COc1ccc(S(=O)(=O)N2CCC(N3N=C(c4ccc(OC)c(OC)c4)CCC3=O)CC2)cc1` [Compound 15, 6-(3,4-Dimethoxy-phenyl)-2-[1-(4-methoxy-benzenesulfonyl)-piperidin-4-yl]-4,5-dihydro-2H-pyridazin-3-one] are 197 to 198 °C and 0.501 µM.
`COc1ccc(C2=NN(C3CCN(S(=O)(=O)c4ccc(C)cc4)CC3)C(=O)CC2)cc1OC` [Compound 11, 6-(3,4-Dimethoxy-phenyl)-2-[1-(toluene-4-sulfonyl)-piperidin-4-yl]-4,5-dihydro-2H-pyridazin-3-one] yielded a melting point of 179 to 184 °C. In addition, the IC50 at PDE3 (cGMP-inhibited) was 0.501 µM.
The corresponding values for `COc1ccc(C2=NN(C3CCN(S(=O)(=O)c4cccc5c(N(C)C)cccc45)CC3)C(=O)CC2)cc1OC` [Compound 9, 6-(3,4-Dimethoxy-phenyl)-2-[1-(5-dimethylamino-naphthalene-1-sulfonyl)-piperidin-4-yl]-4,5-dihydro-2-pyridazin-3-one] are 191 to 193 °C and 0.245 µM.
Regarding `COc1ccc(C2=NN(C3CCN(S(=O)(=O)c4ccccc4OC(F)(F)F)CC3)C(=O)CC2)cc1OC` [Compound 21, 6-(3,4-Dimethoxy-phenyl)-2-[1-(2-trifluoromethoxy-benzenesulfonyl)-piperidin-4-yl]-4,5-dihydro-2H-pyridazin-3-one], the melting point is 118 to 119 °C. In addition, at PDE3 (cGMP-inhibited), the IC50 was 0.1 µM.
The corresponding values for `COc1ccc(C2=NN(C3CCN(CC(=O)N(C)C)CC3)C(=O)CC2)cc1OC.Cl` [Compound 27, 2-{4-[3-(3,4-Dimethoxy-phenyl)-6-oxo-5,6-dihydro-4H-pyridazin-1-yl]-piperidin-1-yl}-N,N-dimethylacetamide hydrochloride] are 121 to 122 °C and more than 10 µM.
`COc1ccc(C2=NN(C3CCN(S(=O)(=O)N(C)C)CC3)C(=O)CC2)cc1OC` [Compound 22, 4-[3-(3,4-Dimethoxy-phenyl)-6-oxo-5,6-dihydro-4H-pyridazin-1-yl]-piperidine-1-sulfonic acid dimethylamide] returned a melting point of 103 to 106 °C.
Compound `COc1ccc(C2=NN(C3CCN(S(C)(=O)=O)CC3)C(=O)CC2)cc1OC` [Compound 12, 6-(3,4-Dimethoxy-phenyl)-2-(1-methanesulfonyl-piperidin-4-yl)-4,5-dihydro-2H-pyridazin-3-one] returned a melting point of 164 to 166 °C. Moreover, the IC50 at PDE3 (cGMP-inhibited) was 0.251 µM.
The compound `COc1ccc(C2=NN(C3CCN(C(=O)N4CCOCC4)CC3)C(=O)CC2C)cc1OC` (stereo not drawn) [Compound 5] came in with a melting point of 137 to 138 °C. The IC50 on PDE3 (cGMP-inhibited) was 1.78 µM.
The corresponding values for `COc1ccc(C2=NN(C3CCN(Cc4cccnc4)CC3)C(=O)CC2C)cc1OC.Cl.Cl` (stereo not drawn) [Compound 6, 6-(3,4-Dimethoxy-phenyl)-5-methyl-2-(1-pyridin-3-ylmethyl-piperidin-4-yl)-4,5-dihydro-2H-pyridazin-3-one dihydrochloride] are 241 to 244 °C and 5.89 µM.
Take `COc1ccc(C2=NN(C3CCNCC3)C(=O)CC2C)cc1OC.Cl` (stereo not drawn): the melting point was in the range of 91 to 95 °C.
The same measure, in the same setting: the value for `COc1ccc(C2=NN(C3CCN(S(=O)(=O)c4ccc(Cl)cc4)CC3)C(=O)CC2)cc1OC` [Compound 13, 2-[1-(4-Chloro-benzenesulfonyl)-piperidin-4-yl]-6-(3,4-dimethoxy-phenyl)-4,5-dihydro-2H-pyridazin-3-one] was 185 to 186 °C; that for `COc1ccc(C2=NN(C3CCN(C(=O)CN4CCN(c5ccccc5OC)CC4)CC3)C(=O)CC2)cc1OC.Cl.Cl` was 109 to 110 °C.
Still for that read-out and setting: the value for `COc1ccc(C2=NN(C3CCN(C(=O)NC(C)(C)C)CC3)C(=O)CC2)cc1OC` [Compound 26, 4-[3-(3,4-Dimethoxy-phenyl)-6-oxo-5,6-dihydro-4H-pyridazin-1-yl]-piperidine-1-carboxylic acid tert-butylamide] was 76 to 78 °C.
Compound `COc1ccc(C2=NN(C3CCN(S(=O)(=O)Cc4ccccc4)CC3)C(=O)CC2)cc1OC` [Compound 14, 6-(3,4-Dimethoxy-phenyl)-2-(1-phenylmethanesulfonyl-piperidin-4-yl)-4,5-dihydro-2H-pyridazin-3-one] came in with a melting point of 114 °C. Moreover, on PDE3 (cGMP-inhibited), the IC50 was 0.251 µM.
Compound `COc1ccc(C2=NN(C3CCN(C(=O)c4cccnc4)CC3)C(=O)CC2)cc1OC` [Compound 24, 6-(3,4-Dimethoxy-phenyl)-2-[1-(1-pyridin-3-yl-methanoyl)-piperidin-4-yl]-4,5-dihydro-2H-pyridazin-3-one] came in with a melting point of 162 to 164 °C.
In turn, `COc1ccc(C2=NN(C3CCN(CC(=O)N4CCOCC4)CC3)C(=O)CC2)cc1OC` (as salt: hydrochloride) [Compound 10, 6-(3,4-Dimethoxy-phenyl)-2-[1-(2-morpholin4-yl-2-oxo-ethyl)-piperidin-4-yl]-4,5-dihydro-2-pyridazin-3-one hydrochloride] came in with a melting point of 145 to 148 °C.
Consider `COc1ccc(C2=NN(C3CCN(S(=O)(=O)c4ccccc4F)CC3)C(=O)CC2)cc1OC` [Compound 20, 6-(3,4-Dimethoxy-phenyl)-2-[1-(2-fluoro-benzenesulfonyl)-Piperidin-4-yl]-4,5-dihydro-2H-pyridazin-3-one], for which the melting point fell in the range of 198 to 199 °C. Besides, on PDE3 (cGMP-inhibited), the IC50 was 0.158 µM.
In turn, `COc1ccc(C2=NN(C3CCN(C(=O)N4CCN(C)CC4)CC3)C(=O)CC2)cc1OC.Cl` [Compound 8, 6-(3,4-Dimethoxy-phenyl)-2-{1-[1-(4-methyl-piperazin-1-yl)-methanoyl]-piperidin-4-yl}-4,5-dihydro-2H-pyridazin-3-one hydrochloride] came in with a melting point of 151 to 154 °C. Also, the IC50 at PDE3 (cGMP-inhibited) was more than 10 µM.
In the same order, the values of `CCN1CCN(C(=O)N2CCC(N3N=C(c4ccc(OC)c(OC)c4)CCC3=O)CC2)C(=O)C1=O` [Compound 7] are 201 to 203 °C and more than 10 µM.
